Measurements: US20210154162A1, “DRUG AND PHARMACEUTICAL COMPOSITION CONTAINING TRANSPORT PROTEIN INHIBITOR, AND USE” (Institute of Basic Medical Sciences Chinese Academy of …, priority 2018, published 2021)
Counter-ions that a name gives are not always drawn.

Assays:
PD-1 [1] = assay: Effect of SAR and BCH on PD-1 expression in mouse CD8+ T cells (flow cytometry); assay type: cell-based; conditions: 200 μM Kyn + 10 mM SAR or 100 μM BCH, 48 h
Method: Mouse splenic CD8^+ T cells were obtained by magnetic bead sorting, and seeded into a U-shaped bottom 96-well plate (100000 cells/well) while anti-CD3/CD28 magnetic beads were added to activate T cells. The culture medium was RPMI-1640 added with 10 ng/mL mouse IL-2 and […] β-mercaptoethanol. Cells were grouped and treated with drugs as follows.
(§1) Control group 1 (PBS): culture medium+PBS;
(§2) Experimental group 2 (Kyn): culture medium+200 μM Kyn;
Experimental group 3 (Kyn+SAR): culture medium+200 μM Kyn+10 mM SAR;
Experimental group 4 (Kyn+BCH): culture medium+200 μM Kyn+100 μM BCH;
(§3) The expression level of PD-1 in CD8^+ T cells of each group was determined by flow cytometry after 48 h.

OVA-B16 cells = assay: Effect of SAR and BCH on killing of OVA-B16 cells by OT-1 CD8+ T cells (apoptosis, flow cytometry); assay type: cell-based, mouse; conditions: T cells pretreated 24 h with 10 mM SAR or 100 μM BCH; co-culture 1:10, 4 hours
Method: Splenic CD8^+ T cells of OT-1 mouse were obtained by magnetic bead sorting and seeded into a U-shaped bottom 96-well plate (100000 cells/well). Cells were grouped and treated with drugs as follows.
as §1
Experimental group 2 (SAR): culture medium+10 mM SAR;
Experimental group 3 (BCH): culture medium+100 μM BCH;
After T cells were pretreated for 24 hours, 3D-cultured OVA-B16 cells were co-cultured with OT-1 CD8^+ T cells at a ratio of 1:10, and the apoptosis of OVA-B16 cells was determined by flow cytometry after 4 hours.

OVA-B16 TRCs = assay: OT-1 T cell cytotoxicity to OVA-B16 TRCs with SLC7A8/PAT4 inhibition or knockdown; assay type: cell-based, mouse; conditions: co-culture
Method: (5) Activated OT-1 T cells were transfected with scramble shRNA, PAT4 shRNAs (Sh1 and Sh2) or SLC7A8 shRNAs (Sh1 and Sh2) for 72 h, and then co-cultured with OVA-B16 TRCs. TRC apoptosis was analyzed by flow cytometry.

PD-1 [2] = assay: Effect of SAR and BCH on PD-1 expression in human peripheral blood CD8+ T cells (flow cytometry); assay type: cell-based; conditions: breast cancer patients, 200 μM Kyn + 10 mM SAR or 100 μM BCH, 48 h
Method: Mononuclear cells were isolated and obtained from the peripheral whole blood of breast cancer patients by using Ficoll. CD8^+ T cells were sorted by magnetic beads, and seeded into a U-shaped bottom 96-well plate (100000 cells/well) while anti-CD3/CD28 magnetic beads were added to activate T cells. The culture medium was RPMI-1640 added with 10 ng/mL human IL-2. Cells were grouped and treated with drugs as follows.
as §1, §2
Experimental group 3 (Kyn+SAR): culture medium+200 μM Kyn+10 mM SAR; Experimental group 4 (Kyn+BCH): culture medium+200 μM Kyn+100 μM BCH;
as §3

PD-1 [3] = assay: AhR activity and PD-1 expression in CD8+ T cells with SLC7A8/PAT4 inhibition or knockdown; assay type: cell-based, mouse; conditions: for PD-1 upregulation: Kyn 200 μM, 48 h; for AhR activity: T cells treated with transporter inhibitor
Method: (4) The experimental steps were the same as those of step (3), except that the expression of PD-1 was analyzed by flow cytometry.

SLC7A8 and PAT4 = assay: Kyn consumption by activated CD8+ T cells with SLC7A8/PAT4 inhibition or knockdown (ELISA); assay type: cell-based, mouse; conditions: Kyn 200 μM, 48 h
Method: (3) Scramble shRNA or shRNA against SLC7A8 and PAT4 were delivered via retrovirus to activated CD8^+ T cells for 24 h, and then the transduced T cells were treated with Kyn (200 μM) for 48 h. Kyn levels in the supernatants were determined by ELISA and the Kyn consumption was calculated.

PAT4 and SLC7A8 [4] = assay: PAT4 and SLC7A8 expression in CD8+ T cells from breast cancer patients (real-time PCR); assay type: cell-based, human; conditions: Kyn/DMF (20 μM) or Kyn/CH (50 μM), 48 h
Method: (8) CD8^+ T cells from breast cancer patients were treated with PBS, Kyn ([…] (20 μM) or Kyn/CH (50 μM) for 48 h. The expression of PAT4 and SLC7A8 was determined by real-time PCR. The determination results were as shown in FIG. 7I.

PD-1 [5] = assay: PD-1 expression in human CD8+ T cells treated with Kyn and AhR inhibitors (flow cytometry); assay type: cell-based; conditions: human CD8+ T cells, Kyn plus inhibitor (DMF 20 μM), 48 h
Method: (4) CD8^+ T cells isolated from PBMCs of patients with breast cancer or lung cancer were activated by anti-CD3/CD28 beads and treated with PBS, Kyn (200 μM) or Kyn/DMF (20 μM) for 48 h. The expression of PD-1 was determined by flow cytometry.
(5) CD8^+ T cells isolated from patients with breast cancer or lung cancer were treated with DMF (20 μM) for 48 h. PD-1 expression was determined by flow cytometry (n=6).

AhR = assay: PD-1 expression in activated CD8+ T cells treated with Kyn plus AhR inhibitor (flow cytometry); assay type: cell-based, mouse; conditions: Kyn plus inhibitor (DMF 10 or 20 μM), 72 h
Method: (4) CD8^+ T cells activated by anti-CD3/CD28 beads were treated with PBS, Kyn or Kyn/DMF (10 or 20 μM) for 72 h. The expression of PD-1 was determined by flow cytometry.

PAT4 and SLC7A8 [6] = assay: PAT4 and SLC7A8 expression in activated CD8+ T cells (real-time PCR, immunostaining); assay type: cell-based, mouse; conditions: activated CD8+ T cells, Kyn/CH-223191 (10 μM) or Kyn/DMF (20 μM), 48 h
Method: (2) Activated CD8^+ T cells were treated with PBS or Kyn (200 μM) for 24 h. The expression of PAT4 and SLC7A8 was determined by real-time PCR (left) and immunostaining (right). Bar, […].
(6) The mRNA expression of PAT4 and SLC7A8 was determined in activated CD8^+ T cells treated with PBS, Kyn, Kyn/CH-223191 (10 μM) or Kyn/DMF (20 μM) for 48 h.

PD-1 [7] = assay: PD-1 expression in activated CD8+ T cells treated with TCDD (qPCR, flow cytometry); assay type: cell-based, mouse; conditions: 48 h
Method: (7) Activated CD8^+ T cells were treated with TCDD for 48 h and then PD-1 expression was analyzed by qPCR (left) and flow cytometry (right). The data represented mean±SEM.

PD-1 [8] = assay: PD-1 expression in anti-CD3/CD28 bead-activated CD8+ T cells treated with Kyn or other tryptophan metabolites (flow cytometry); assay type: cell-based, mouse; conditions: other tryptophan metabolites 500 μM, 24 h
Method: (4) The isolated splenic CD8^+ T cells were incubated with anti-CD3/CD28 beads in the presence of different concentrations of Kyn. PD-1 expression was determined by flow cytometry.
(5) The experimental steps were the same as those of step (4), except that CD8^+ T cells were treated with 200 μM Kyn for different time periods as shown in FIG. 2E.
(6) Anti-CD3/CD28 bead-activated CTLs were treated with PBS, 200 μM Kyn or other metabolites (500 μM) from the tryptophan pathway (melatonin, kynurinic acid and indoxyle sulphate). After 24 h, PD-1 expression was determined by flow cytometry.

[9] = biological target: T1, tryptophan transporter SLC1A5 (Mus musculus, UniProt P51912); assay: Effect of GPNA on the uptake of tryptophan by tumor cells (ELISA of lysates); assay type: cell-based; conditions: OVA-B16 cells, 50 ng/mL IFN-γ, 24 h
T1 construct: endogenous in cells; host or cells: mouse OVA-B16 melanoma cells
T1 sequence (P51912 1-553): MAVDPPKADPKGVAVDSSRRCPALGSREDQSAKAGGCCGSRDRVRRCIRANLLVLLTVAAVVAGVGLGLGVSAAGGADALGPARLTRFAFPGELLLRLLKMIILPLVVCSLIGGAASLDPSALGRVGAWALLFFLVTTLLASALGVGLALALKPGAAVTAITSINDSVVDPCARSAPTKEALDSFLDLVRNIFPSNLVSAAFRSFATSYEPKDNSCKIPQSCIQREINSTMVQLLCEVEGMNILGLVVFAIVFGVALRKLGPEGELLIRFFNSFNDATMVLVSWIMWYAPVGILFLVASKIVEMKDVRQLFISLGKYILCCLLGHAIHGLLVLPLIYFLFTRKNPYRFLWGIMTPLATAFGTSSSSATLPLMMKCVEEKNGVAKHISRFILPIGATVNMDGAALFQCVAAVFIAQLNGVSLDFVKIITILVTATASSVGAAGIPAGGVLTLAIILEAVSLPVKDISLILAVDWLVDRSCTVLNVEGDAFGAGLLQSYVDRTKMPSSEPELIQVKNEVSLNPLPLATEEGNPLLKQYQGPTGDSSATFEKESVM
Method: Mouse OVA-B16 cells were cultured in RPMI-1640 culture medium in vitro and were group and treated as follows.
as §1
Control group 2 (GPNA): culture medium+10 μM GPNA;
Experimental group 3 (IFN-γ): culture medium+50 ng/mL IFN-γ;
Experimental group 4 (IFN-γ+GPNA): culture medium+50 ng/mL IFN-γ+10 μM GPNA;
The cells in each group were collected after 24 h and ultrasonically broken, the concentrations of tryptophan in the lysates were determined by ELISA, and BCA protein assay was carried out at the same time.

## NC1(C(=O)O)CC2CCC1C2 (centres unmarked) [BCH, 2-amino-2-norbornanecarboxylic acid]
PD-1 [1]
  expression of PD-1 in CD8+ T cells: significantly reducing
OVA-B16 cells
  apoptosis ratio of OVA-B16 tumor cells: increased significantly
OVA-B16 TRCs
  OT-1 T cell cytotoxicity to OVA-B16 TRCs: enhanced
PD-1 [2]
  expression of PD-1 in CD8+ T cells: significantly reducing
PD-1 [3]
  PD-1 upregulation: abolished
  AhR activity: inhibited
SLC7A8 and PAT4
  entry of Kyn into T cells: blocked

## Cc1ccccc1N=Nc1ccc(NC(=O)c2ccnn2C)c(C)c1 [CH-223191]
PAT4 and SLC7A8 [4]
  Kyn-induced upregulation of SLC7A8 and PAT4: blocked
PD-1 [5]
  Kyn-induced PD-1 upregulation: inhibited
AhR
  Kyn-dependent upsurge of PD-1: thwarted
PAT4 and SLC7A8 [6]
  Kyn-induced upregulation of SLC7A8 and PAT4: effectively inhibiting

## CNCC(=O)O [SAR, sarcosine]
PD-1 [1]
  expression of PD-1 in CD8+ T cells: significantly reducing
OVA-B16 cells
  apoptosis ratio of OVA-B16 tumor cells: increased significantly
OVA-B16 TRCs
  OT-1 T cell cytotoxicity to OVA-B16 TRCs: enhanced
PD-1 [2]
  expression of PD-1 in CD8+ T cells: significantly reducing
PD-1 [3]
  PD-1 upregulation: abolished
  AhR activity: inhibited
SLC7A8 and PAT4
  entry of Kyn into T cells: blocked

## Clc1cc2c(cc1Cl)Oc1cc(Cl)c(Cl)cc1O2 [TCDD]
PD-1 [7]
  PD-1 expression: upregulated

## O=S(=O)(O)Oc1c[nH]c2ccccc12 [indoxyl sulfate]
PD-1 [8]
  PD-1 expression: none of them was able to alter PD-1 expression

## O=C(O)c1cc(=O)c2ccccc2[nH]1 [kynurenic acid]
PD-1 [8]
  PD-1 expression: none of them was able to alter PD-1 expression

## COc1ccc2[nH]cc(CCNC(C)=O)c2c1 [melatonin]
PD-1 [8]
  PD-1 expression: none of them was able to alter PD-1 expression

B1: IFN-γ: recombinant IFN-γ purchased from R & D Systems (protein, UniProt P01579 24-161, looked up)
Interferon gamma: QDPYVKEAENLKKYFNAGHSDVADNGTLFLGILKNWKEESDRKIMQSQIVSFYFKLFKNFKDDQSIQKSVETIKEDMNVKFFNSNKKKRDDFEKLTNYSVTDLNVQRKAIHELIQVMAELSPAAKTGKRKRSQMLFRG
[9]
  uptake of tryptophan by tumor cells: significantly increasing
